Literature values, collected in patent publication US20060148728A1 (priority 2000, published 2006).

Settings: in vivo; cited from earlier work

COc1cc([C@@H]2c3cc4c(cc3[C@@H](O[C@@H]3O[C@@H]5CO[C@@H](C)O[C@H]5[C@H](O)[C@H]3O)[C@H]3COC(=O)[C@H]23)OCO4)cc(OC)c1O [Etoposide]
Bioavailability of oral etoposide: 40-75%
